Patent publication US10206399B2, “Herbicidal composition comprising uracil compound as active ingredient” (Dongbu Farm Hannong Co., Ltd., priority 2012, dated 2019)
Where two headings read alike, the source gives them in different places.

Experiments:
[1] = system: Echinochloa crus; settings: for plant mortality, measured value: Echinochloa crus; for Echinochloa crus mortality, measured value: 20 days after treatment
Text: (§1) X is % damage by uracil compound (a) of formula 1 at the rate of application of p kg/ha; Y is % damage by conventional herbicidal compound (b) at the rate of application of q kg/ha; and E is the expected damage caused by compounds (a) and (b) at a rate of application of p and q kg/ha.
(§2) The expected activity for a given combination of two herbicides can be calculated using equation 1 above.

[2] = system: Digitaria sanguinalis; settings: for plant mortality, measured value: Digitaria sanguinalis; for Digitaria sanguinalis mortality, measured value: 20 days after treatment
Text: as §1, §2

[3] = system: Abutilon theophrasti; settings: for plant mortality, measured value: Abutilon theophrasti; for Abutilon theophrasti mortality, measured value: 20 days after treatment
Text: as §1, §2

[4] = system: Aeschynomene indica; settings: for plant mortality, measured value: Aeschynomene indica; for Aeschynomene indica mortality, measured value: 20 days after treatment
Text: as §1, §2

[5] = system: Xanthium spinosum; settings: for plant mortality, measured value: Xanthium spinosum; for Xanthium spinosum mortality, measured value: 20 days after treatment
Text: as §1, §2

[6] = system: ryegrass; test: Nonselective composition of 1 uracil compound and 2 herbicidally active compounds, plant mortality; type: in vivo
Text: as §1, §2

[7] = system: wild amaranth; test: as above; type: in vivo
Text: as §1, §2

[8] = 480 h, read-out: ryegrass mortality (measured value)
[9] = Amaranthus caudatus, 480 h, read-out: Wild amaranth mortality (measured value)

SMILES: O=C(O)COc1ccc(Cl)cc1Cl [2,4-D]
- Data (measured value) Echinochloa crus ([1]; 100 g/ha): 0
- plant mortality, measured value ([1]; 100 g/ha): 0
- plant mortality, measured value ([1]; 200 g/ha): 0
- plant mortality, measured value ([1]; 400 g/ha): 0
- Data (measured value) Digitaria sanguinalis ([2]; 100 g/ha): 0
- plant mortality, measured value ([2]; 100 g/ha): 0
- plant mortality, measured value ([2]; 200 g/ha): 0
- plant mortality, measured value ([2]; 400 g/ha): 0
- Data (measured value) Abutilon theophrasti ([3]; 100 g/ha): 7
- plant mortality, measured value ([3]; 100 g/ha): 7
- plant mortality, measured value ([3]; 200 g/ha): 21
- plant mortality, measured value ([3]; 400 g/ha): 47
- Data (measured value) Aeschynomene indica ([4]; 100 g/ha): 7
- plant mortality, measured value ([4]; 100 g/ha): 7
- plant mortality, measured value ([4]; 200 g/ha): 24
- plant mortality, measured value ([4]; 400 g/ha): 51
- Data (measured value) Xanthium spinosum ([5]; 100 g/ha): 10
- plant mortality, measured value ([5]; 100 g/ha): 10
- plant mortality, measured value ([5]; 200 g/ha): 22
- plant mortality, measured value ([5]; 400 g/ha): 50

SMILES: C=CCOC(=O)C(C)(C)OC(=O)c1cc(-n2c(=O)cc(C(F)(F)F)n(C)c2=O)ccc1Cl [(Butafenacil]
- plant mortality, measured value ([1]; 16 g/ha): 5
- plant mortality, measured value ([2]; 16 g/ha): 5
- plant mortality, measured value ([3]; 16 g/ha): 51
- plant mortality, measured value ([4]; 16 g/ha): 67
- plant mortality, measured value ([5]; 16 g/ha): 54

SMILES: CCOCN(C(=O)CCl)c1c(C)cccc1CC [Acetochlor]
- pest or weed control at 375 g/ha [6, 8]: 30%
- pest or weed control at 375 g/ha [7, 9]: 10%

SMILES: Nc1cc(Cl)nc(C(=O)O)c1Cl [Aminopyralid]
- ryegrass mortality (measured value) ([6]; 250 g ai/ha): 0
- Wild amaranth mortality (measured value) ([7]; 250 g ai/ha): 20

SMILES: COC(=O)NS(=O)(=O)c1ccc(N)cc1 [Asulam]
- pest or weed control at 1250 g/ha [6, 8]: 25%
- pest or weed control at 1250 g/ha [7, 9]: 20%

SMILES: CCNc1nc(Cl)nc(NC(C)C)n1 [Atrazine]
- pest or weed control at 200 g/ha [6, 8]: 30%
- pest or weed control at 200 g/ha [7, 9]: 25%

SMILES: C[C@H](NC(=O)[C@H](C)NC(=O)[C@@H](N)CCP(C)(=O)O)C(=O)O [Bilanafos]
- pest or weed control at 500 g/ha ([6]; 480 h, 500 g ai/ha, read-out: ryegrass mortality (measured value)): 30%
- pest or weed control at 500 g/ha ([7]; Amaranthus caudatus, 480 h, 500 g ai/ha, read-out: Wild amaranth mortality (measured value)): 15%

SMILES: C[C@@H](Oc1ccc(Oc2ncc(Cl)cc2F)cc1)C(=O)O [Clodinafop, reference compound]
- Echinochloa crus mortality, measured value ([1]; 15 g/ha): 25%
- Echinochloa crus mortality, measured value ([1]; 30 g/ha): 53%
- Digitaria sanguinalis mortality, measured value ([2]; 15 g/ha): 21%
- Digitaria sanguinalis mortality, measured value ([2]; 30 g/ha): 50%
- Abutilon theophrasti mortality, measured value ([3]; 15 g/ha): 0%
- Abutilon theophrasti mortality, measured value ([3]; 30 g/ha): 0%
- Aeschynomene indica mortality, measured value ([4]; 15 g/ha): 0%
- Aeschynomene indica mortality, measured value ([4]; 30 g/ha): 0%
- Xanthium spinosum mortality, measured value ([5]; 15 g/ha): 0%
- Xanthium spinosum mortality, measured value ([5]; 30 g/ha): 0%

SMILES: CC1(C)CON(Cc2ccccc2Cl)C1=O [Clomazone]
- pest or weed control at 175 g/ha [6, 8]: 15%
- pest or weed control at 175 g/ha [7, 9]: 30%

SMILES: O=C(O)c1nc(Cl)ccc1Cl [Clopyralid]
- pest or weed control at 125 g/ha [6, 8]: 0%
- pest or weed control at 125 g/ha [7, 9]: 10%

SMILES: CC(Oc1ccc(Oc2ccc(Cl)cc2Cl)cc1)C(=O)O (stereo not shown) [Diclofop]
- pest or weed control at 175 g/ha [6, 8]: 30%
- pest or weed control at 175 g/ha [7, 9]: 0%

SMILES: C/C(=N\NC(=O)Nc1cc(F)cc(F)c1)c1ncccc1C(=O)O [Diflufenzopyr]
- pest or weed control at 12.5 g/ha [6, 8]: 20%
- pest or weed control at 12.5 g/ha [7, 9]: 20%

SMILES: CCOC1Oc2ccc(OS(C)(=O)=O)cc2C1(C)C (stereo not shown) [Ethofumesate]
- pest or weed control at 250 g/ha [6, 8]: 25%
- pest or weed control at 250 g/ha [7, 9]: 20%

SMILES: CP(=O)(O)CCC(N)C(=O)O (stereo not shown) [Glufosinate-ammonium]
- pest or weed control at 150 g/ha [6, 8]: 10%
- pest or weed control at 150 g/ha [7, 9]: 20%

SMILES: CC(C)N.O=C(O)CNCP(=O)(O)O [Glyphosate-IPA]
- ryegrass mortality (measured value) ([6]; 300 g ai/ha): 10
- Wild amaranth mortality (measured value) ([7]; 300 g ai/ha): 10

SMILES: COCc1cnc(C2=NC(C)(C(C)C)C(=O)N2)c(C(=O)O)c1 (stereo not shown) [Imazamox]
- pest or weed control at 8.3 g/ha [6, 8]: 30%
- pest or weed control at 8.3 g/ha [7, 9]: 20%

SMILES: CCC(C)(CC)c1cc(NC(=O)c2c(OC)cccc2OC)on1 [Isoxaben]
- pest or weed control at 31 g/ha [6, 8]: 0%
- pest or weed control at 31 g/ha [7, 9]: 30%

SMILES: Cc1cc(Cl)ccc1OCC(=O)O [MCPA]
- Data (measured value) Echinochloa crus ([1]; 75 g/ha): 0
- Data (measured value) Echinochloa crus ([1]; 150 g/ha): 0
- Data (measured value) Echinochloa crus ([1]; 300 g/ha): 0
- Data (measured value) Digitaria sanguinalis ([2]; 75 g/ha): 0
- Data (measured value) Digitaria sanguinalis ([2]; 150 g/ha): 0
- Data (measured value) Digitaria sanguinalis ([2]; 300 g/ha): 0
- Data (measured value) Abutilon theophrasti ([3]; 75 g/ha): 11
- Data (measured value) Abutilon theophrasti ([3]; 150 g/ha): 32
- Data (measured value) Abutilon theophrasti ([3]; 300 g/ha): 64
- Data (measured value) Aeschynomene indica ([4]; 75 g/ha): 11
- Data (measured value) Aeschynomene indica ([4]; 150 g/ha): 24
- Data (measured value) Aeschynomene indica ([4]; 300 g/ha): 58
- Data (measured value) Xanthium spinosum ([5]; 75 g/ha): 8
- Data (measured value) Xanthium spinosum ([5]; 150 g/ha): 25
- Data (measured value) Xanthium spinosum ([5]; 300 g/ha): 59

SMILES: Cc1cc(Cl)ccc1OCCCC(=O)O [MCPB]
- plant mortality, measured value ([1]; 75 g/ha): 9
- plant mortality, measured value ([1]; 150 g/ha): 27
- plant mortality, measured value ([1]; 300 g/ha): 57
- plant mortality, measured value ([2]; 75 g/ha): 12
- plant mortality, measured value ([2]; 150 g/ha): 25
- plant mortality, measured value ([2]; 300 g/ha): 56
- plant mortality, measured value ([3]; 75 g/ha): 11
- plant mortality, measured value ([3]; 150 g/ha): 22
- plant mortality, measured value ([3]; 300 g/ha): 52
- plant mortality, measured value ([4]; 75 g/ha): 13
- plant mortality, measured value ([4]; 150 g/ha): 32
- plant mortality, measured value ([4]; 300 g/ha): 64
- plant mortality, measured value ([5]; 75 g/ha): 12
- plant mortality, measured value ([5]; 150 g/ha): 27
- plant mortality, measured value ([5]; 300 g/ha): 58

SMILES: C[C@@H](Oc1ccc(Oc2nc3ccc(Cl)cc3o2)cc1)C(=O)N(C)c1ccccc1F [Metamifop, reference compound]
- Echinochloa crus mortality, measured value ([1]; 25 g/ha): 11%
- plant mortality, measured value ([1]; 25 g/ha): 11
- Echinochloa crus mortality, measured value ([1]; 50 g/ha): 26%
- plant mortality, measured value ([1]; 50 g/ha): 26
- Echinochloa crus mortality, measured value ([1]; 100 g/ha): 57%
- plant mortality, measured value ([1]; 100 g/ha): 57
- Digitaria sanguinalis mortality, measured value ([2]; 25 g/ha): 11%
- plant mortality, measured value ([2]; 25 g/ha): 11
- Digitaria sanguinalis mortality, measured value ([2]; 50 g/ha): 23%
- plant mortality, measured value ([2]; 50 g/ha): 23
- Digitaria sanguinalis mortality, measured value ([2]; 100 g/ha): 48%
- plant mortality, measured value ([2]; 100 g/ha): 48
- Abutilon theophrasti mortality, measured value ([3]; 25 g/ha): 0%
- plant mortality, measured value ([3]; 25 g/ha): 0
- Abutilon theophrasti mortality, measured value ([3]; 50 g/ha): 0%
- plant mortality, measured value ([3]; 50 g/ha): 0
- Abutilon theophrasti mortality, measured value ([3]; 100 g/ha): 0%
- plant mortality, measured value ([3]; 100 g/ha): 0
- Aeschynomene indica mortality, measured value ([4]; 25 g/ha): 0%
- plant mortality, measured value ([4]; 25 g/ha): 0
- Aeschynomene indica mortality, measured value ([4]; 50 g/ha): 0%
- plant mortality, measured value ([4]; 50 g/ha): 0
- Aeschynomene indica mortality, measured value ([4]; 100 g/ha): 0%
- plant mortality, measured value ([4]; 100 g/ha): 0
- Xanthium spinosum mortality, measured value ([5]; 25 g/ha): 0%
- plant mortality, measured value ([5]; 25 g/ha): 0
- Xanthium spinosum mortality, measured value ([5]; 50 g/ha): 0%
- plant mortality, measured value ([5]; 50 g/ha): 0
- Xanthium spinosum mortality, measured value ([5]; 100 g/ha): 0%
- plant mortality, measured value ([5]; 100 g/ha): 0

SMILES: CC(C)Oc1cc(-n2nc(C(C)(C)C)oc2=O)c(Cl)cc1Cl [Oxadiazon]
- pest or weed control at 500 g/ha [6, 8]: 30%
- pest or weed control at 500 g/ha [7, 9]: 30%

SMILES: CCC(CC)Nc1c([N+](=O)[O-])cc(C)c(C)c1[N+](=O)[O-] [Pendimethalin]
- pest or weed control at 250 g/ha [6, 8]: 30%
- pest or weed control at 250 g/ha [7, 9]: 20%

SMILES: O=C(Nc1ccc(F)cc1)c1cccc(Oc2cccc(C(F)(F)F)c2)n1 [Picolinafen]
- ryegrass mortality (measured value) ([6]; 25 g ai/ha): 0
- Wild amaranth mortality (measured value) ([7]; 25 g ai/ha): 25

SMILES: CS(=O)(=O)c1ccc(C(=O)C2C(=O)CCCC2=O)c(Cl)c1 [Sulcotrione]
- pest or weed control at 75 g/ha [6, 8]: 20%
- pest or weed control at 75 g/ha [7, 9]: 20%

SMILES: COc1cc(OC)nc(NC(=O)NS(=O)(=O)c2ncccc2OCC(F)(F)F)n1 [Trifloxysulfuron]
- Data (measured value) Echinochloa crus ([1]; 1.25 g/ha): 8
- plant mortality, measured value ([1]; 1.25 g/ha): 8
- Data (measured value) Echinochloa crus ([1]; 5 g/ha): 56
- plant mortality, measured value ([1]; 5 g/ha): 56
- Data (measured value) Digitaria sanguinalis ([2]; 1.25 g/ha): 8
- plant mortality, measured value ([2]; 1.25 g/ha): 8
- Data (measured value) Digitaria sanguinalis ([2]; 5 g/ha): 51
- plant mortality, measured value ([2]; 5 g/ha): 51
- Data (measured value) Abutilon theophrasti ([3]; 1.25 g/ha): 12
- plant mortality, measured value ([3]; 1.25 g/ha): 12
- Data (measured value) Abutilon theophrasti ([3]; 5 g/ha): 61
- plant mortality, measured value ([3]; 5 g/ha): 61
- Data (measured value) Aeschynomene indica ([4]; 1.25 g/ha): 9
- plant mortality, measured value ([4]; 1.25 g/ha): 9
- Data (measured value) Aeschynomene indica ([4]; 5 g/ha): 58
- plant mortality, measured value ([4]; 5 g/ha): 58
- Data (measured value) Xanthium spinosum ([5]; 1.25 g/ha): 13
- plant mortality, measured value ([5]; 1.25 g/ha): 13
- Data (measured value) Xanthium spinosum ([5]; 5 g/ha): 62
- plant mortality, measured value ([5]; 5 g/ha): 62
